Measurements reported in patent US10519114B2, “Peptidomimetics and methods of using the same” (The Regents of the University of Michigan, priority 2016, dated 2019).

Assays:
[1] = biological target: T1, rat μ (C6-MOR) opioid receptor (Rattus norvegicus, UniProt P33535); test: Radioligand binding assay, [3H]diprenorphine displacement, MOR; settings: displacement of 0.2 nM [3H]diprenorphine, C6-MOR membranes; mean ± standard error
T1 construct: expressed in transfected cells
Procedure, shortened: (§1)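 Cell membranes bearing rat μ or δ receptors (C6 glioma) or human κ receptors (CHO) were mixed with test peptide and 0.2 nM [3H]diprenorphine, incubated to equilibrium for 1 h at room temperature, filtered and counted. 10 μM naloxone set nonspecific binding.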

[2] = biological target: T2, rat δ (C6-DOR) opioid receptor (Rattus norvegicus, UniProt P33533); test: Radioligand binding assay, [3H]diprenorphine displacement, DOR; settings: displacement of 0.2 nM [3H]diprenorphine, C6-DOR membranes; mean ± standard error
T2 construct: expressed in transfected cells
Procedure, shortened: as §1

[3] = biological target: T3, human κ (CHO-KOR) opioid receptor (Homo sapiens, UniProt P41145); test: Radioligand binding assay, [3H]diprenorphine displacement, KOR; settings: displacement of 0.2 nM [3H]diprenorphine, CHO-KOR membranes; mean ± standard error
T3 construct: expressed in transfected cells
Procedure, shortened: as §1

C57BL/6 mice = test: Antinociception, warm water tail withdrawal assay;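 on Antinociceptive activity: fully efficacious means no withdrawal up to the 20 s cutoff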; assay type: in vivo; settings: mouse tail withdrawal; for Duration: duration of antinociceptive action, 50° C.; for Antinociceptive activity: 50° C. water bath, cutoff 20 s, ip
Experimental: In Vivo Pharmacology. Animals. Adult male C57BL/6 mice weighing between 20 and 30 g at 8-16 weeks old were used for the current experiments (obtained from Jackson Laboratories (Bar Harbor, Me.), Harlan (Indianapolis, Ind.), or bred in-house). Mice were group-housed and had free access to food and water at all times. Experiments were conducted in the housing room, which was maintained on a 12 h light/dark cycle (with lights on at 0700). Each mouse was used only once and experiments were conducted between 11 a.m. and 4 p.m. Studies were performed in accordance with the University of Michigan Committee on the Use and Care of Animals and the Guide for the Care and Use of Laboratory Animals (National Research Council, 2011 publication).
Antinociception. The antinociceptive effects of the compounds disclosed herein and morphine can be evaluated in the warm water tail withdrawal assay using a cumulative dosing procedure. To determine tail withdrawal latencies, each mouse was placed briefly into a plastic, cylindrical restrainer and 2-3 cm of the tail tip was placed into a water bath maintained at 50° C. The latency to withdraw the tail was recorded with a maximum cutoff time of 20 s. […] Each animal received an injection of saline (intraperitoneal, ip) and then 30 min later, the baseline withdrawal latencies were recorded and ranged between 3 and 6 s. Following baseline determinations, three increasing doses (1, 2.2, and 6.8 mg/kg) of 1(4R) were given at 30 min intervals to provide final doses of 1, 3.2, and 10 mg/kg. Thirty minutes after each injection, the tail withdrawal latency was measured as described above. To confirm that 1(4R) was acting at opioid receptors, the cumulative dose response was repeated over the doses 3.2, 10, and 32 mg/kg following a 30 min pretreatment with 1 mg/kg naltrexone (ip). To determine the time-course of antinociceptive action the tail-withdrawal test was performed at varying times following administration of morphine (10 mg/kg, ip) or 1(4R) (10 mg/kg, ip).

[4] = biological target: T1, rat μ (C6-MOR) opioid receptor; test: Stimulation of [35S]GTPγS binding, MOR; assay type: biochemical; settings: for EC50: [35S]GTPγS binding, C6-MOR membranes, mean ± standard error; for Emax: [35S]GTPγS maximal stimulation compared with 10 μM standard DAMGO
Procedure, shortened: (§2)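 Peptide-stimulated [35S]GTPγS (0.1 nM) binding, with 30 μM GDP, 5 mM MgCl2 and 100 mM NaCl at pH 7.4, was measured over 1 h at room temperature. Membranes came from rat MOR/DOR C6 or human KOR CHO cells. Filter-retained counts were expressed against 10 μM DAMGO, DPDPE or U69,593 respectively; maxima were fitted nonlinearly.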

[5] = biological target: T2, rat δ (C6-DOR) opioid receptor; test: Stimulation of [35S]GTPγS binding, DOR; assay type: biochemical; settings: for EC50 (nm) DOR / EC50: [35S]GTPγS binding, C6-DOR membranes, mean ± standard error; for % stimulation DOR / Emax: [35S]GTPγS maximal stimulation compared with 10 μM standard DPDPE
Procedure, shortened: as §2

[6] = biological target: T3, human κ (CHO-KOR) opioid receptor; test: Stimulation of [35S]GTPγS binding, KOR; assay type: biochemical; settings: for EC50 (nm) KOR / EC50: [35S]GTPγS binding, CHO-KOR membranes, mean ± standard error; for % stimulation KOR / Emax: [35S]GTPγS maximal stimulation compared with 10 μM standard U-69,593
Procedure, shortened: as §2

T3 sequence (P41145 whole entry): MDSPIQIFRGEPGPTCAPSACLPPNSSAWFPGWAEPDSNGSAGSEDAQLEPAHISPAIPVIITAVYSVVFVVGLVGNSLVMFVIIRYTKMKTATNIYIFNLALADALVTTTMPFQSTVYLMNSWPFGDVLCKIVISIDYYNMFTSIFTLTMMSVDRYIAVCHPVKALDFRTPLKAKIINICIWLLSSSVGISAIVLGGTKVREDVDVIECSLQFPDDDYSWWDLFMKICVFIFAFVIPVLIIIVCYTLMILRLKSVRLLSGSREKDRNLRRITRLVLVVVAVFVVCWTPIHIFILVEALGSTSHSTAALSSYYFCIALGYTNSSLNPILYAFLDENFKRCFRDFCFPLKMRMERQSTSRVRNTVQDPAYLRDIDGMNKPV
T2 sequence (P33533 whole entry): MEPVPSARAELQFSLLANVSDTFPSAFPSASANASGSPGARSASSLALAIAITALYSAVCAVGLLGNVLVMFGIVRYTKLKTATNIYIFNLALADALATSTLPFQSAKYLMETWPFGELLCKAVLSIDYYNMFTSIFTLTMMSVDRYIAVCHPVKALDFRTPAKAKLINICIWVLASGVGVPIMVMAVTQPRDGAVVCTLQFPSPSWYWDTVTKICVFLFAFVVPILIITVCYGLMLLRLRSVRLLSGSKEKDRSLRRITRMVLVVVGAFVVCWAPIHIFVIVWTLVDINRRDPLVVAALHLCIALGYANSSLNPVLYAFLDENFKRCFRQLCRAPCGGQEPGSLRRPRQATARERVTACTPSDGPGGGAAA
T1 sequence (P33535 whole entry): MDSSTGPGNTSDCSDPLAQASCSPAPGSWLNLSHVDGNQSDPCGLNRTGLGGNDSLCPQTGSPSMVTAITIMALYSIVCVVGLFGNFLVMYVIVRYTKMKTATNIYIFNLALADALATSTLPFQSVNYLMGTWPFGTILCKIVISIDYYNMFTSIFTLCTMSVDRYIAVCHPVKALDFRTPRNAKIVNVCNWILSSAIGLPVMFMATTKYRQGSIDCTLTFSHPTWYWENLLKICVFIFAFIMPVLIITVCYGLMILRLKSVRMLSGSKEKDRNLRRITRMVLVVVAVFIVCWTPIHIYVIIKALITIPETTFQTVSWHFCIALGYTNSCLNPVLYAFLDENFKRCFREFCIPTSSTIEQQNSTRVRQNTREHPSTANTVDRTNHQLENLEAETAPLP

Structure (SMILES)	Ki [1]	Ki [2]	Ki [3]	Duration (C57BL/6 mice)	Antinociceptive activity (C57BL/6 mice)	EC50 [4]	Emax [4]	EC50 (nm) DOR [5]	% stimulation DOR [5]	EC50 (nm) KOR [6]	% stimulation KOR [6]	EC50 [5]	Emax [5]	EC50 [6]	Emax [6]
Cc1cc(O)cc(C)c1C[C@H](N)C(=O)N[C@@H]1CCNc2c(C)cc(Cc3ccccc3)cc21 [Compound 1100]	2.63 nM	1.09 nM	18.3 nM	90 min	Fully efficacious										
Cc1cc(O)cc(C)c1C[C@H](N)C(=O)N[C@@H]1CCNc2c(CCc3ccccc3)cc(Cc3ccccc3)cc21 [Compound 1098]	0.64 ± 0.34 nM	0.69 ± 0.03 nM	27.5 ± 7.81 nM		Inactive	44.4 ± 16.6 nM	78.4 ± 1.26%	dns	dns	dns	dns				
Cc1cc(O)cc(C)c1C[C@H](N)C(=O)N[C@@H]1CCNc2c(Br)cc(Cc3ccccc3)cc21 [Compound 1128]	0.2 nM	2.2 nM	27 nM		Inactive	1.2 nM	73%					36 nM	69%	300 nM	30%
Cc1cc(O)cc(C)c1C[C@H](N)C(=O)N[C@@H]1CCNc2c(F)cc(Cc3ccccc3)cc21 [Compound 1090]					Inactive										
Cc1cc(O)cc(C)c1C[C@H](N)C(=O)N[C@@H]1CCNc2c(Cc3ccccc3)cc(Cc3ccccc3)cc21 [Compound 1041]	0.73 nM	0.86 nM	13.2 nM		Inactive	7.25 nM	73%	dns	dns						
Cc1cc(O)cc(C)c1C[C@H](N)C(=O)N[C@@H]1CCCc2ccc(-c3ccccc3)cc21 [Compound 1117]	0.57 ± 0.32 nM	3.99 ± 1.31 nM	20.9 ± 4.12 nM			9.51 ± 3.3 nM	28.7 ± 2.39%					181 ± 28.2 nM	21.2 ± 10.7%	321 ± 176 nM	45.6 ± 1.77%
Cc1cc(O)cc(C)c1C[C@H](N)C(=O)N[C@@H]1CCNc2ccc(-c3ccccc3)cc21 [Compound 1068]	1.11 ± 0.44 nM	13.4 ± 4.32 nM	165 ± 110 nM			11.8 ± 5.77 nM	23.7 ± 5.88%	dns	dns					933 ± 219 nM	57.1 ± 2.63%
Cc1cc(O)cc(C)c1C[C@H](N)C(=O)N[C@@H]1CCNc2ccc(Cc3ccc(F)cc3)cc21 [Compound 1009]	0.07 nM	4 nM	6.6 nM				69%						16%		9%
Cc1cc(O)cc(C)c1C[C@H](N)C(=O)N[C@@H]1CCN(C)c2ccc(Cc3ccccc3)cc21 [Compound 1004]	0.555 ± 0.242 nM	7.3 ± 3.5 nM	27.8 ± 0.7 nM			4 ± 0.9 nM	102 ± 4.6%					486 nM	4.3 ± 4.3%	2220 ± 1020 nM	44 ± 8.2%
CCCCCCc1ccc2c(c1)[C@@H](NC(=O)[C@@H](N)Cc1c(C)cc(O)cc1C)CCN2 [Compound 1012]	297 ± 72 nM	1240 ± 438 nM	3900 nM			> 1000 nM	18%					> 10000 nM	22%		0%
CC(=O)N1CC[C@@H](NC(=O)[C@@H](N)Cc2c(C)cc(O)cc2C)c2cc(CN3CCc4ccc(F)cc4C3)ccc21 [Compound 1062]	0.05 ± 0.01 nM	0.77 ± 0.23 nM	16.2 ± 7.94 nM			23.7 ± 26.7 nM	99.6 ± 1.92%	dns	dns					234 ± 70.1 nM	34.2 ± 8.24%
Cc1cc(O)cc(C)c1C[C@H](N)C(=O)N[C@@H]1CCNc2c(CN3CCCCC3)cc(Cc3ccccc3)cc21 [Compound 1097]	0.07 ± 0.03 nM	2.41 nM	0.71 nM		Inactive	2.32 ± 0.21 nM	93 ± 1.67%								
COc1cc(Cc2ccccc2)cc2c1N(C(C)=O)CC[C@H]2NC(=O)[C@@H](N)Cc1c(C)cc(O)cc1C [Compound 1076]	0.14 ± 0.01 nM	2.16 ± 1.15 nM	44.8 ± 16.9 nM			0.78 ± 0.2 nM	95.8 ± 10.2%					4.62 ± 1.9 nM	44.6 ± 3.75%	1480 ± 639 nM	16.1 ± 5.54%
Cc1cc(O)cc(C)c1C[C@H](N)C(=O)NC1CCNc2ccc(Oc3ccccc3)cc21 (stereo partly drawn) [Compound 1017]	0.42 ± 0.04 nM	13.9 ± 6.7 nM	65.5 ± 9.66 nM			14.9 ± 5.37 nM	68 ± 2.33%					108 ± 53.3 nM	9.8 ± 5.49%	957 nM	23.6%
Cc1cc(O)cc(C)c1C[C@H](N)C(=O)N[C@@H]1CCCc2ccc(-c3cccc4ccccc34)cc21 [Compound 1115]	5.44 ± 2.7 nM	45.5 ± 26.9 nM	131 ± 42.3 nM				0.34 ± 3.26%						-2.57 ± 4.3%	200 nM	3.82 ± 3.2%
CC(=O)N1CC[C@@H](NC(=O)[C@@H](N)Cc2c(C)cc(O)cc2C)c2cc(Oc3ccccc3)ccc21 [Compound 1019]	0.1 ± 0.02 nM	4.21 ± 1.26 nM	32.98 ± 0.1 nM			6.49 ± 3.21 nM	76.6 ± 2.66%					222 nM	15.8%	1080 nM	37.3%
Cc1cc(O)cc(C)c1C[C@H](N)C(=O)N(C1CC1)C1CCNc2ccc(Cc3ccccc3)cc21 (stereo partly drawn) [Compound 1016]	5.33 ± 2.43 nM	52.5 ± 17.8 nM	28.6 ± 7.24 nM			28.4 ± 4.4 nM	40.1 ± 10.7%						0.82 ± 3.63%		-0.01 ± 0.01%
Cc1cc(O)cc(C)c1C[C@H](N)C(=O)N[C@@H]1CCS(=O)(=O)c2ccc(Cc3ccccc3)cc21 [Compound 1124]	0.06 ± 0.01 nM	2.34 ± 1.42 nM	27.2 ± 5.99 nM			0.72 ± 0.11 nM	94.5 ± 3.04%					126 ± 72.5 nM	45.2 ± 5.62%	721 ± 317 nM	35.8 ± 2.15%
Cc1cc(O)cc(C)c1C[C@H](N)C(=O)N(C)[C@H]1CCNc2ccc(Cc3ccccc3)cc21 [Compound 1002]	0.8 ± 0.04 nM	8.5 ± 0.2 nM	4.1 ± 0.4 nM			0.463 ± 0.1 nM	65.6 ± 4.4%						2.2 ± 2.2%	7.2 ± 0.4 nM	8.3 ± 2.4%
Cc1cc(O)cc(C)c1C[C@H](N)C(=O)N[C@@H]1CCNc2c(C(=O)NCc3ccccc3)cc(Cc3ccccc3)cc21 [Compound 1104]	0.36 nM	2.17 nM	29.4 nM		Inactive	4.18 nM	79%	dns	dns						
CCOC(=O)c1cc(Cc2ccccc2)cc2c1NCC[C@H]2NC(=O)[C@@H](N)Cc1c(C)cc(O)cc1C [Compound 1102]	1.01 ± 0.28 nM	4.2 nM	48.7 nM	150 min	Fully efficacious	4.91 ± 0.28 nM	70.5 ± 2.61%	dns	dns						
Cc1cc(O)cc(C)c1C[C@H](N)C(=O)N[C@@H]1CCNc2c(CN3CCN(C(=O)[C@@H](N)Cc4c(C)cc(O)cc4C)CC3)cc(Cc3ccccc3)cc21 [Compound 1096]	0.31 ± 0.16 nM	2.56 ± 0.53 nM	7.17 ± 2.38 nM			5.89 ± 0.68 nM	86 ± 8%	dns	dns	dns	dns				
